{"source": "ChEMBL document CHEMBL4819062", "about": "“Novel iodinated quinazolinones bearing sulfonamide as new scaffold targeting radiation induced oxidative stress” (Bioorg Med Chem Lett, 2021)", "key": {"[1]": {"biological_target": "T1, Nuclear factor erythroid 2-related factor 2 (Mus musculus) (UniProt Q60795)", "T1 sequence (whole entry)": "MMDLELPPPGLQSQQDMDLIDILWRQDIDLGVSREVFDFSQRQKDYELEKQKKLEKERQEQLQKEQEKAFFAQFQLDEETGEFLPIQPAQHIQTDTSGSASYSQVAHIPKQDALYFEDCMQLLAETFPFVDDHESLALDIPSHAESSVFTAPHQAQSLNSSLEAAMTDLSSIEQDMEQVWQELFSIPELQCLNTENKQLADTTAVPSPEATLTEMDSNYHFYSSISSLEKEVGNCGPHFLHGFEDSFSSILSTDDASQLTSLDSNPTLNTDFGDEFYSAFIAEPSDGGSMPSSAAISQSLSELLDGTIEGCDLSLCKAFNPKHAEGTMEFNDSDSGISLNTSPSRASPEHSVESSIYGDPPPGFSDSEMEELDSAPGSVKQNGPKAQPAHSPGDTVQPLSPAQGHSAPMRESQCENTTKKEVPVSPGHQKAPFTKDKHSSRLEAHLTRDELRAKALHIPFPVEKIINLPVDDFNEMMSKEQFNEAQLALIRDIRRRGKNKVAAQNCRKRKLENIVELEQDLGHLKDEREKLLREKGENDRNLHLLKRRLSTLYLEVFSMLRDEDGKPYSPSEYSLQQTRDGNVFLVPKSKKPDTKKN", "assay": "Activation of Nrf2 in mouse Hepa1c1c7 cells assessed as increase in NQO1 activity at 3.125 uM", "assay_type": "cell-based", "details": "filed as activator"}, "[2]": {"biological_target": "T1, Nuclear factor erythroid 2-related factor 2 (Mus musculus)", "assay": "Activation of Nrf2 in mouse Hepa1c1c7 cells assessed as increase in NQO1 activity at 1.6 uM", "assay_type": "cell-based", "details": "filed as activator"}, "[3]": {"biological_target": "T1, Nuclear factor erythroid 2-related factor 2 (Mus musculus)", "assay": "Activation of Nrf2 in mouse Hepa1c1c7 cells assessed as increase in NQO1 activity at 0.4 uM", "assay_type": "cell-based", "details": "filed as activator"}, "[4]": {"assay": "Antioxidant activity assessed as DPPH radical scavenging activity", "assay_type": "functional"}, "[5]": {"biological_target": "T1, Nuclear factor erythroid 2-related factor 2 (Mus musculus)", "assay": "Activation of Nrf2 in mouse Hepa1c1c7 cells assessed as increase in NQO1 activity at 12.5 uM", "assay_type": "cell-based", "details": "filed as activator"}, "[6]": {"biological_target": "T1, Nuclear factor erythroid 2-related factor 2 (Mus musculus)", "assay": "Activation of Nrf2 in mouse Hepa1c1c7 cells assessed as increase in NQO1 activity at 0.8 uM", "assay_type": "cell-based", "details": "filed as activator"}, "[7]": {"biological_target": "T1, Nuclear factor erythroid 2-related factor 2 (Mus musculus)", "assay": "Activation of Nrf2 in mouse Hepa1c1c7 cells assessed as increase in NQO1 activity at 6.25 uM", "assay_type": "cell-based", "details": "filed as activator"}, "[8]": {"biological_target": "T1, Nuclear factor erythroid 2-related factor 2 (Mus musculus)", "assay": "Activation of Nrf2 in mouse Hepa1c1c7 cells assessed as increase in NQO1 activity at 20 uM", "assay_type": "cell-based", "details": "filed as activator"}, "[9]": {"biological_target": "T1, Nuclear factor erythroid 2-related factor 2 (Mus musculus)", "assay": "Activation of Nrf2 in mouse Hepa1c1c7 cells assessed as increase in NQO1 activity at 5 uM", "assay_type": "cell-based", "details": "filed as activator"}, "[10]": {"biological_target": "T1, Nuclear factor erythroid 2-related factor 2 (Mus musculus)", "assay": "Activation of Nrf2 in mouse Hepa1c1c7 cells assessed as increase in NQO1 activity at 40 uM", "assay_type": "cell-based", "details": "filed as activator"}, "[11]": {"biological_target": "T1, Nuclear factor erythroid 2-related factor 2 (Mus musculus)", "assay": "Activation of Nrf2 in mouse Hepa1c1c7 cells assessed as increase in NQO1 activity at 10 uM", "assay_type": "cell-based", "details": "filed as activator"}, "[12]": {"biological_target": "T1, Nuclear factor erythroid 2-related factor 2 (Mus musculus)", "assay": "Activation of Nrf2 in mouse Hepa1c1c7 cells assessed as increase in NQO1 activity at 2.5 uM", "assay_type": "cell-based", "details": "filed as activator"}, "[13]": {"biological_target": "T1, Nuclear factor erythroid 2-related factor 2 (Mus musculus)", "assay": "Activation of Nrf2 in mouse Hepa1c1c7 cells assessed as increase in NQO1 activity at 0.313 uM", "assay_type": "cell-based", "details": "filed as activator"}, "[14]": {"biological_target": "T1, Nuclear factor erythroid 2-related factor 2 (Mus musculus)", "assay": "Activation of Nrf2 in mouse Hepa1c1c7 cells assessed as increase in NQO1 activity at 0.625 uM", "assay_type": "cell-based", "details": "filed as activator"}, "[15]": {"biological_target": "T1, Nuclear factor erythroid 2-related factor 2 (Mus musculus)", "assay": "Activation of Nrf2 in mouse Hepa1c1c7 cells assessed as increase in NQO1 activity at 1.25 uM", "assay_type": "cell-based", "details": "filed as activator"}, "[16]": {"biological_target": "T1, Nuclear factor erythroid 2-related factor 2 (Mus musculus)", "assay": "Activation of Nrf2 in mouse Hepa1c1c7 cells assessed as increase in NQO1 activity at 1.9 uM", "assay_type": "cell-based", "details": "filed as activator"}, "[17]": {"biological_target": "T1, Nuclear factor erythroid 2-related factor 2 (Mus musculus)", "assay": "Activation of Nrf2 in mouse Hepa1c1c7 cells assessed as increase in NQO1 activity at 0.2 uM", "assay_type": "cell-based", "details": "filed as activator"}, "[18]": {"biological_target": "T1, Nuclear factor erythroid 2-related factor 2 (Mus musculus)", "assay": "Activation of Nrf2 in mouse Hepa1c1c7 cells assessed as increase in NQO1 activity at 0.9 uM", "assay_type": "cell-based", "details": "filed as activator"}, "[19]": {"biological_target": "T1, Nuclear factor erythroid 2-related factor 2 (Mus musculus)", "assay": "Activation of Nrf2 in mouse Hepa1c1c7 cells assessed as increase in NQO1 activity at 0.5 uM", "assay_type": "cell-based", "details": "filed as activator"}, "[20]": {"biological_target": "T1, Nuclear factor erythroid 2-related factor 2 (Mus musculus)", "assay": "Activation of Nrf2 in mouse Hepa1c1c7 cells assessed as increase in NQO1 activity at 15 uM", "assay_type": "cell-based", "details": "filed as activator"}, "[21]": {"biological_target": "T1, Nuclear factor erythroid 2-related factor 2 (Mus musculus)", "assay": "Activation of Nrf2 in mouse Hepa1c1c7 cells assessed as increase in NQO1 activity at 30 uM", "assay_type": "cell-based", "details": "filed as activator"}, "[22]": {"biological_target": "T1, Nuclear factor erythroid 2-related factor 2 (Mus musculus)", "assay": "Activation of Nrf2 in mouse Hepa1c1c7 cells assessed as increase in NQO1 activity at 7.5 uM", "assay_type": "cell-based", "details": "filed as activator"}, "[23]": {"biological_target": "T1, Nuclear factor erythroid 2-related factor 2 (Mus musculus)", "assay": "Activation of Nrf2 in mouse Hepa1c1c7 cells assessed as increase in NQO1 activity at 3.75 uM", "assay_type": "cell-based", "details": "filed as activator"}}, "note": "pIC50: −log10 of the molar value.", "data": [{"molecule": "NS(=O)(=O)c1ccc(-n2c(SCC(=O)Nc3ccc(Cl)cn3)nc3c(I)cc(I)cc3c2=O)cc1", "values": [{"measurement": "Activity", "setting": "[1]", "result": 1.09}, {"measurement": "Activity", "setting": "[2]", "result": 0.98}, {"measurement": "Activity", "setting": "[3]", "result": 0.94}, {"measurement": "pIC50", "setting": "[4]", "result": 4.52}, {"measurement": "Activity", "setting": "[5]", "result": 1.7}, {"measurement": "Activity", "setting": "[6]", "result": 0.99}, {"measurement": "Activity", "setting": "[7]", "result": 1.5}]}, {"molecule": "NS(=O)(=O)c1ccc(-n2c(SCC(=O)Nc3ccc(I)cc3)nc3c(I)cc(I)cc3c2=O)cc1", "values": [{"measurement": "Activity", "setting": "[8]", "result": 1.07}, {"measurement": "Activity", "setting": "[9]", "result": 1.05}, {"measurement": "pIC50", "setting": "[4]", "result": 4.26}, {"measurement": "Activity", "setting": "[10]", "result": 1.12}, {"measurement": "Activity", "setting": "[11]", "result": 1.04}, {"measurement": "Activity", "setting": "[12]", "result": 1.04}, {"measurement": "Activity", "setting": "[13]", "result": 1.02}, {"measurement": "Activity", "setting": "[14]", "result": 1.02}, {"measurement": "Activity", "setting": "[15]", "result": 1.03}]}, {"molecule": "NS(=O)(=O)c1ccc(-n2c(SCC(=O)Nc3c(Cl)cc(Cl)cc3Cl)nc3c(I)cc(I)cc3c2=O)cc1", "values": [{"measurement": "Activity", "setting": "[16]", "result": 1.04}, {"measurement": "Activity", "setting": "[17]", "result": 1}, {"measurement": "Activity", "setting": "[18]", "result": 1.06}, {"measurement": "pIC50", "setting": "[4]", "result": 3.79}, {"measurement": "Activity", "setting": "[19]", "result": 1.02}, {"measurement": "Activity", "setting": "[20]", "result": 1}, {"measurement": "Activity", "setting": "[21]", "result": 1.02}, {"measurement": "Activity", "setting": "[22]", "result": 1}, {"measurement": "Activity", "setting": "[23]", "result": 1.02}]}, {"molecule": "NS(=O)(=O)c1ccc(-n2c(S)nc3c(I)cc(I)cc3c2=O)cc1", "values": [{"measurement": "pIC50", "setting": "[4]", "result": 4.24}]}]}
